Key:
Type in all cases: in vivo
Details in all cases: 250 g/h, evaluated after 13 days
Lolium perenne (LOLPE) [1] = assay: Post-emergence herbicidal glasshouse test, percentage damage
Summary of the method: (§1)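 Glasshouse, 24/16 °C, 14 h photoperiod, 65% humidity. Sprayed at 250 g/h pre- (1 d) or post-emergence (8 d); evaluated 13 d after spraying, 5-point damage scale.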

[2] = system: Alopecurus myosuroides (ALOMY); assay: as above
Summary of the method: as §1

[3] = system: Echinochloa crus-galli (ECHCG); assay: as above
Summary of the method: as §1

Avena fatua (AVEFA) [4] = assay: as above
Summary of the method: as §1

Setaria faberi (SETFA) [5] = assay: as above
Summary of the method: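 Percentage damage was scored 13 days after treatment on a five-point scale (1=0-19% to 5=80-100%). Treatments were post-emergence sprays on 8-day-old wheat, barley and SETFA plants in a glasshouse (24/16 °C day/night, 14 h light, 65% humidity), using acetone/water 50:50 with 0.5% Tween 20 at the stated rates. Wheat additionally received cloquintocet-mexyl safener at 50 g/ha.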

Setaria faberi (SETFA) [6] = assay: Pre-emergence herbicidal glasshouse test, percentage damage
Summary of the method: as §1

Lolium perenne (LOLPE) [7] = assay: as above
Summary of the method: as §1

[8] = system: Alopecurus myosuroides (ALOMY); assay: as above
Summary of the method: as §1

[9] = system: Echinochloa crus-galli (ECHCG); assay: as above
Summary of the method: as §1

Avena fatua (AVEFA) [10] = assay: as above
Summary of the method: as §1

Compound	LOLPE POST percentage damage (five point scale) (Lolium perenne (LOLPE) [1])	ALOMY POST percentage damage (five point scale) [2]	ECHCG POST percentage damage (five point scale) [3]	AVEFA POST percentage damage (five point scale) (Avena fatua (AVEFA) [4])	SETFA POST percentage damage (five point scale) (Setaria faberi (SETFA) [5])	SETFA PRE percentage damage (five point scale) (Setaria faberi (SETFA) [6])	LOLPE PRE percentage damage (five point scale) (Lolium perenne (LOLPE) [7])	ALOMY PRE percentage damage (five point scale) [8]	ECHCG PRE percentage damage (five point scale) [9]	AVEFA PRE percentage damage (five point scale) (Avena fatua (AVEFA) [10])
CC#Cc1cc(C)c(C2C(=O)CC3(CCN(C(=O)Cc4cnccn4)CC3)CC2=O)c(C)c1 [Compound A104]	5 (5=80-100%)	5 (5=80-100%)	5 (5=80-100%)	5 (5=80-100%)	5 (5=80-100%)	5 (5=80-100%)	5 (5=80-100%)	4 (4=60-79%)	5 (5=80-100%)	5 (5=80-100%)
CC#Cc1cc(C)c(C2C(=O)CC3(CCN(C(=O)NC(=O)c4cccnc4)CC3)CC2=O)c(C)c1 [Compound A145]	5 (5=80-100%)	5 (5=80-100%)	5 (5=80-100%)	5 (5=80-100%)	5 (5=80-100%)	5 (5=80-100%)	4 (4=60-79%)	3 (3=40-59%)	5 (5=80-100%)	2 (2=20-39%)
CC#Cc1cc(C)c(C2C(=O)CC3(CCN(C(=O)C(C)(C)O)CC3)CC2=O)c(C)c1 [Compound A146]	5 (5=80-100%)	5 (5=80-100%)	5 (5=80-100%)	5 (5=80-100%)	5 (5=80-100%)	5 (5=80-100%)	5 (5=80-100%)	5 (5=80-100%)	5 (5=80-100%)	4 (4=60-79%)
CC#Cc1cc(C)c(C2C(=O)CC3(CCN(C(=O)COCCOC)CC3)CC2=O)c(C)c1 [Compound A147]	5 (5=80-100%)	5 (5=80-100%)	5 (5=80-100%)	5 (5=80-100%)	5 (5=80-100%)	5 (5=80-100%)	5 (5=80-100%)	4 (4=60-79%)	5 (5=80-100%)	3 (3=40-59%)
CC#Cc1cc(C)c(C2C(=O)CC3(CCN(C(=O)COCC)CC3)CC2=O)c(C)c1 [Compound A148]	5 (5=80-100%)	5 (5=80-100%)	5 (5=80-100%)	5 (5=80-100%)	5 (5=80-100%)	5 (5=80-100%)	5 (5=80-100%)	5 (5=80-100%)	5 (5=80-100%)	5 (5=80-100%)
CC#Cc1cc(C)c(C2C(=O)CC3(CCN(C(=O)CC4OCCO4)CC3)CC2=O)c(C)c1 [Compound A151]	5 (5=80-100%)	5 (5=80-100%)	5 (5=80-100%)	5 (5=80-100%)	5 (5=80-100%)	5 (5=80-100%)	5 (5=80-100%)	5 (5=80-100%)	5 (5=80-100%)	5 (5=80-100%)
CC#Cc1cc(C)c(C2C(=O)CC3(CCN(C(=O)NC(C)C)CC3)CC2=O)c(C)c1 [Compound A152]	5 (5=80-100%)	5 (5=80-100%)	5 (5=80-100%)	5 (5=80-100%)	5 (5=80-100%)	5 (5=80-100%)	5 (5=80-100%)	5 (5=80-100%)	5 (5=80-100%)	5 (5=80-100%)
CC#Cc1cc(C)c(C2C(=O)CC3(CCN(C(=O)[C@H](C)OC)CC3)CC2=O)c(C)c1 [Compound A153]	5 (5=80-100%)	5 (5=80-100%)	5 (5=80-100%)	5 (5=80-100%)	5 (5=80-100%)	5 (5=80-100%)	5 (5=80-100%)	5 (5=80-100%)	5 (5=80-100%)	5 (5=80-100%)
CC#Cc1cc(C)c(C2C(=O)CC3(CCN(C(=O)[C@@H](C)OC)CC3)CC2=O)c(C)c1 [Compound A154]	5 (5=80-100%)	5 (5=80-100%)	5 (5=80-100%)	5 (5=80-100%)	5 (5=80-100%)	5 (5=80-100%)	5 (5=80-100%)	5 (5=80-100%)	5 (5=80-100%)	5 (5=80-100%)
CC#Cc1cc(C)c(C2C(=O)CC3(CCN(C(=O)[C@H](C)O)CC3)CC2=O)c(C)c1 [Compound A155]	5 (5=80-100%)	5 (5=80-100%)	5 (5=80-100%)	5 (5=80-100%)	5 (5=80-100%)	5 (5=80-100%)	5 (5=80-100%)	5 (5=80-100%)	5 (5=80-100%)	5 (5=80-100%)
CC#Cc1cc(C)c(C2C(=O)CC3(CCN(C(=O)[C@@H](C)O)CC3)CC2=O)c(C)c1 [Compound A156]	5 (5=80-100%)	5 (5=80-100%)	5 (5=80-100%)	5 (5=80-100%)	5 (5=80-100%)	5 (5=80-100%)	5 (5=80-100%)	5 (5=80-100%)	5 (5=80-100%)	5 (5=80-100%)

Source: patent publication US12043599B2, “Herbicidal compounds” (SYNGENTA PARTICIPATIONS AG, priority 2018, dated 2024)
